Target: T1, Caspase-1 (Homo sapiens, UniProt P29466)
T1 sequence (P29466 whole entry): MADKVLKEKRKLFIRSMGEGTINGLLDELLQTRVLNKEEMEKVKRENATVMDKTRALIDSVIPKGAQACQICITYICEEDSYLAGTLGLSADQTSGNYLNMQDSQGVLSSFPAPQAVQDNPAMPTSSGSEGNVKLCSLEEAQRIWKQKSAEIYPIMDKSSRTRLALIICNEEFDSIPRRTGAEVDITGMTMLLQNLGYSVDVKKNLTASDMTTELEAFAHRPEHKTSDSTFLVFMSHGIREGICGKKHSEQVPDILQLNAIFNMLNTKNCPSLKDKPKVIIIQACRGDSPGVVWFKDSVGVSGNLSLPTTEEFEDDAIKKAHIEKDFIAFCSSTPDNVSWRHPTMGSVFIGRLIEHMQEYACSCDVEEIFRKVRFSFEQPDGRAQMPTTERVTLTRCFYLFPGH
Assay: Caspase Inhibition Assay
Details: pH 7; 37 °C
Description: The substrate peptides terminating in AMC are processed by caspases with or without inhibitors, and the accumulation of AMC was assessed with a Cytofluor fluorescent plate reader at excitation and emission wavelengths of 380 and 460 nm. Compounds were tested, and full IC50 curves were run for all compounds expressing measurable inhibitory activity.

Structure (SMILES)	Ki [µM]
CC(=O)N[C@@H](Cc1ccc(O)cc1)C(=O)N[C@H](C(=O)N[C@@H](C)C(=O)N[C@@H](CC(=O)O)C(=O)CCCCCc1ccccc1)C(C)C [(3S)-3-[(2S)-2-[(2S)-2-[(2S)-2-acetamido-3-(4-hydroxyphenyl)propanamido]-3-methylbutanamido]propanamido]-4-oxo-9-phenylnonanoic acid]	0.011
O=C(O)C[C@H](NS(=O)(=O)c1ccccc1)C(=O)CSCCCc1ccccc1 [(3S)-3-benzenesulfonamido-4-oxo-5-[(3-phenylpropyl)sulfanyl]pentanoic acid]	24
O=C(O)C[C@H](NS(=O)(=O)c1ccccc1)C(=O)CCCCCc1ccccc1 [(3S)-3-benzenesulfonamido-4-oxo-9-phenylnonanoic acid]	24
O=C[C@H](CC(=O)O)NS(=O)(=O)c1ccccc1 [(3S)-3-benzenesulfonamido-4-oxobutanoic acid]	9.4
Cc1cccc(-c2ccccc2S(=O)(=O)N[C@H](C=O)CC(=O)O)c1 [(3S)-3-{[2-(3-methylphenyl)benzene]sulfonamido}-4-oxobutanoic acid]	3.1
Cc1ccc(-c2ccccc2S(=O)(=O)N[C@H](C=O)CC(=O)O)cc1 [(3S)-3-{[2-(4-methylphenyl)benzene]sulfonamido}-4-oxobutanoic acid]	7.2
O=C[C@H](CC(=O)O)NS(=O)(=O)c1ccccc1-c1cccc2ccccc12 [(3S)-3-{[2-(naphthalen-1-yl)benzene]sulfonamido}-4-oxobutanoic acid]	6.9
Cc1ccccc1-c1ccccc1S(=O)(=O)N[C@H](C=O)CC(=O)O [(S)-3-(2-Methyl-biphenyl-2-sulfonylamino)-4-oxo-butyric acid]	6.8
Cc1cccc(S(=O)(=O)N[C@H](C=O)CC(=O)O)c1-c1ccccc1 [(S)-3-(6-Methyl-biphenyl-2-sulfonylamino)-4-oxo-butyric acid]	1.9
O=C(O)C[C@H](NC(=O)OCc1ccccc1)C(=O)CSCCCc1ccccc1 [(S)-3-Benzyloxycarbonylamino-4-oxo-5-(3-phenyl-propyl-sulfanyl)-pentanoic acid]	25
O=C(O)C[C@H](NC(=O)OCc1ccccc1)C(=O)CCCCCc1ccccc1 [(S)-3-Benzyloxycarbonylamino-4-oxo-9-phenyl-nonanoic acid]	119

Source: BindingDB's records for doi:10.1016/s0968-0896(01)00250-4 (Pfizer, 2002)
